The subject of assay [1] is HNF4α mRNA. As to the kind of experiment: HNF4α mRNA levels by quantitative PCR. Format: cell-based. As to conditions: FIG. 3. How it is done:
Expression of Insulin and HNF4α. RNA was purified using a RNEASY® chromatographic separation and isolation kits (Qiagen), and converted to cDNA using the gScript™ cDNA SuperMix (Quanta Biosciences). Q-PCR was conducted with cDNA corresponding to 2 μg of RNA using an Opticon Real-Time System (MJ Research) and QPCR SuperMix (BioPioneer). See All mRNA values were normalized to 18S rRNA values and are expressed as fold changes over vehicle-treated control.

In assay [2] the test system is T6PNE cells. The assay can be described thus: Lipid clearance (steatosis assay) in T6PNE cells. Format: cell-based. The method, then: T6PNE cells were pretreated for 1 day with 0.06 mM, 0.12 mM or 0.25 mM palmitate at which time 15 μM N-trans-caffeoyltyramine or control (DMSO) was added. Cells were harvested on day 3, 6 and 8 and subjected to staining with Nile Red and […]. Results are expressed as fold change in Nile Red staining: +palmitate/10% FBS medium (no palmitate).
Lipid Clearance in HepG2 and T6PNE Cells (Steatosis Assay). The steatosis assay was carried out as described (Kiselyuk, et al. (2012) Chem. Biol. 19(7):806-818) with the exception of the drug concentration, which was 20 μM for N-trans-caffeoyltyramine with 0.25 mM palmitate in HepG2 cell lines, and 10 μM of either N-trans-caffeoyltyramine, N-trans-caffeoyltyramine, or p-coumaroyltyramine, with 0.25 mM palmitate in T6PNE cell lines. Steatosis was assessed using the Oil Red O Method for Fats kits (Poly Scientific; Warrington, PA), per manufacturer's guidelines. Briefly, frozen tissue slides or fixed cells were incubated in neat propylene glycol for 2 minutes and Oil Red O solution for […] for slides or 1 hour for fixed cells, differentiated in 85% propylene glycol solution for 1 minute, washed twice with distilled water and stained in Hematoxylin of 10 seconds. Slides were mounted with glycerin jelly mounting medium.

Entries after “also recorded” stand apart in the source; their conditions may differ.

`O=C(/C=C/c1ccc(O)c(O)c1)NCCc1ccc(O)cc1` [N-trans-caffeoyltyramine]: the HNF4α gene expression result in assay [1] is “upregulated”. Besides, in assay [2] (T6PNE cells pretreated 1 day with 0.06-0.25 mM palmitate, 15 μM compound, Nile Red, FIG. 6), the “lipid accumulation when palmitate was added prior to compound” value was “reduced lipid accumulation; also recorded: can reverse fat accumulation”. The fat accumulation result in assay [2] (T6PNE cells, 0.25 mM palmitate, 10 μM compound) is “inhibition of fat accumulation”.

The record behind these values is patent publication US20240158339A1, “TYRAMINE CONTAINING HYDROXYCINNAMIC ACID AMIDE DERIVATIVES AND METHODS OF USE THEREOF” (Brightseed, Inc., priority 2018, published 2024).
